{
  "source": "ChEMBL document CHEMBL5463729",
  "about": "“Data for DCP probe BAY 1753011” (2023)",
  "key": {"[1]": {"target": "Tyrosine-protein kinase Fgr (Homo sapiens) (UniProt P09769)", "experiment": "Inhibition of Fgr(h) at 10.0 µM in the Eurofins Kinase panel", "conditions": "Compound concentration 10.0 uM; call rule not given here"}, "[2]": {"target": "Type-1 angiotensin II receptor (Homo sapiens) (UniProt P30556)", "conditions": "Compound concentration 10.0 uM"}, "Vasopressin V2 receptor": {"target": "Vasopressin V2 receptor (Homo sapiens, UniProt P30518)", "experiment": "Inhibition of Vasopressin V2 at 10 µM in the Eurofins-Panlabs radioligand binding assay (Eurofins_assay_287610)", "design": "ligand concentration 4 nM", "conditions": "Compound concentration 10.0 uM"}, "[3]": {"target": "Cyclin-dependent kinase 5/CDK5 activator 1 (Homo sapiens) (UniProt Q00535+Q15078)", "experiment": "Inhibition of CDK5/p25(h) at 10.0 µM in the Eurofins Kinase panel", "type": "protein-complex assay", "conditions": "Compound concentration 10.0 uM"}, "[4]": {"target": "Cyclin-dependent kinase-like 2 (Homo sapiens) (UniProt Q92772)", "sequence (Q92772 whole entry)": "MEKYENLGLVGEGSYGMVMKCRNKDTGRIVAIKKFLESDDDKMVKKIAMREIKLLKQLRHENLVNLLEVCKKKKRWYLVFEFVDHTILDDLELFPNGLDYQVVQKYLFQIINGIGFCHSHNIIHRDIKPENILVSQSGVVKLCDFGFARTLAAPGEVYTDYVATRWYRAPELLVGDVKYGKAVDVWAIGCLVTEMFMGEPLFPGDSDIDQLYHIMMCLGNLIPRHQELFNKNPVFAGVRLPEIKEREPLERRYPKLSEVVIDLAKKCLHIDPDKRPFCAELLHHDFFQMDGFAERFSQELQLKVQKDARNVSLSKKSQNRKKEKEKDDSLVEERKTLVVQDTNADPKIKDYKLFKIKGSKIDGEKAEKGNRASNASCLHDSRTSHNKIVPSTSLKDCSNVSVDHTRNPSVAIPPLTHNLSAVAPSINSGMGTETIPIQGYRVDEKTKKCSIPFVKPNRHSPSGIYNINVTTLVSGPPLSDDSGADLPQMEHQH", "experiment": "Inhibition of CDKL2(h) at 10.0 µM in the Eurofins Kinase panel", "conditions": "Compound concentration 10.0 uM"}, "[5]": {"target": "Serine/threonine-protein kinase Nek1 (Homo sapiens) (UniProt Q96PY6)", "experiment": "Inhibition of NEK1(h) at 10.0 µM in the Eurofins Kinase panel", "conditions": "Compound concentration 10.0 uM"}, "[6]": {"target": "Platelet-derived growth factor receptor alpha (Homo sapiens) (UniProt P16234)", "experiment": "Inhibition of PDGFRalpha(h) at 10.0 µM in the Eurofins Kinase panel", "conditions": "Compound concentration 10.0 uM"}, "Vasopressin V1a receptor": {"target": "Vasopressin V1a receptor (Homo sapiens, UniProt P37288)", "sequence (P37288 whole entry)": "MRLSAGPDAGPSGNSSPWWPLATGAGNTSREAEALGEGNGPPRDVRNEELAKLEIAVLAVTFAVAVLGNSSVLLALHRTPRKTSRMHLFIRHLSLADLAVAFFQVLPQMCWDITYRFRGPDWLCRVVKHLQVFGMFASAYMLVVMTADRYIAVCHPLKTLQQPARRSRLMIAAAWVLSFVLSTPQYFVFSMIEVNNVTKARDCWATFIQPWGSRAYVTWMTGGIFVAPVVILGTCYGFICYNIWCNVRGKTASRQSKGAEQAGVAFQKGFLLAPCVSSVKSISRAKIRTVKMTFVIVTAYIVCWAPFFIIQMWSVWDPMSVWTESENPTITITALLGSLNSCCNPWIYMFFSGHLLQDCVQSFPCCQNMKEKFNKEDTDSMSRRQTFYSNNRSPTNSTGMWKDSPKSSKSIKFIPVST", "experiment": "Assay with bioluminescence detection (AVPR1). (The vasopressin receptor cells react to stimulation of the recombinantly expressed V1a receptors by intracellular release of calcium ions, which can be quantified by the resulting photoprotein luminescence).", "type": "functional, cell-based, CHO-K1"}, "[7]": {"target": "Prostaglandin E2 receptor EP4 subtype (Homo sapiens) (UniProt P35408)", "experiment": "Inhibition of Prostanoid EP4 at 10 µM in the Eurofins-Panlabs radioligand binding assay (Eurofins_assay_268420)", "design": "ligand concentration 1 nM", "conditions": "Compound concentration 10.0 uM"}, "[8]": {"target": "T1, Alpha-1A adrenergic receptor (Homo sapiens) (UniProt P35348)", "T1 sequence (whole entry)": "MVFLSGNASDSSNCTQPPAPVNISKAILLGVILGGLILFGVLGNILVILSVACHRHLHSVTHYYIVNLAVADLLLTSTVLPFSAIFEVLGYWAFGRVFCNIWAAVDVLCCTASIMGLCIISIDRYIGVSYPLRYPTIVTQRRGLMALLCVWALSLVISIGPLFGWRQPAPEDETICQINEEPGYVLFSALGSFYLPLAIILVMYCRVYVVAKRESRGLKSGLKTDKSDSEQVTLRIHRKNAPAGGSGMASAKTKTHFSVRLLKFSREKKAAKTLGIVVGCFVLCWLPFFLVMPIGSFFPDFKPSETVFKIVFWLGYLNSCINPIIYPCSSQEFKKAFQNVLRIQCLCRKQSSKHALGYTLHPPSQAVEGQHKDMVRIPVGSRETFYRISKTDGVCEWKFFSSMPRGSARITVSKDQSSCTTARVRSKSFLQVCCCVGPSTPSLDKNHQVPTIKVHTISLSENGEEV", "conditions": "Rattus norvegicus; Compound concentration 10.0 uM"}, "[9]": {"target": "Serine/threonine-protein kinase BRSK2 (Homo sapiens) (UniProt Q8IWQ3)", "sequence (Q8IWQ3 whole entry)": "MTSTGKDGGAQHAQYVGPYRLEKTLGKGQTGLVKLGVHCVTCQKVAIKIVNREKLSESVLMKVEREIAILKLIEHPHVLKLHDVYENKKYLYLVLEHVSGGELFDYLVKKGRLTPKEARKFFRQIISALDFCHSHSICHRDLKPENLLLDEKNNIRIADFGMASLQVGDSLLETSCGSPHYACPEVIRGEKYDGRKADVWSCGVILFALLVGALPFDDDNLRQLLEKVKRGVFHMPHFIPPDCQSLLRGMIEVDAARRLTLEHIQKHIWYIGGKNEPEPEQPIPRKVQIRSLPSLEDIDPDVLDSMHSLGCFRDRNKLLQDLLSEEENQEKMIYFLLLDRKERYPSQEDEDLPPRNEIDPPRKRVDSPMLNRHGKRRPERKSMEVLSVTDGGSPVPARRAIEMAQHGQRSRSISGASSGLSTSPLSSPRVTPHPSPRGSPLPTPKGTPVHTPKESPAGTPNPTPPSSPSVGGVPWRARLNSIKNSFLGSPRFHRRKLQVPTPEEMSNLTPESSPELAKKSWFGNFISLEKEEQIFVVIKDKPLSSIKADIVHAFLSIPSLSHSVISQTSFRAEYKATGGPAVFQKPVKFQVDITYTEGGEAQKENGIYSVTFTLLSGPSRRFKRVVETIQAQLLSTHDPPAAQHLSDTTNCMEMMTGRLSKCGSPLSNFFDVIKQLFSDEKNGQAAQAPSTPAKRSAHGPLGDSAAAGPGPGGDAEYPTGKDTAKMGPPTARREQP", "experiment": "Inhibition of BrSK2(h) at 10.0 µM in the Eurofins Kinase panel", "conditions": "Compound concentration 10.0 uM"}, "[10]": {"target": "Melanocortin receptor 5 (Homo sapiens) (UniProt P33032)", "sequence (P33032 whole entry)": "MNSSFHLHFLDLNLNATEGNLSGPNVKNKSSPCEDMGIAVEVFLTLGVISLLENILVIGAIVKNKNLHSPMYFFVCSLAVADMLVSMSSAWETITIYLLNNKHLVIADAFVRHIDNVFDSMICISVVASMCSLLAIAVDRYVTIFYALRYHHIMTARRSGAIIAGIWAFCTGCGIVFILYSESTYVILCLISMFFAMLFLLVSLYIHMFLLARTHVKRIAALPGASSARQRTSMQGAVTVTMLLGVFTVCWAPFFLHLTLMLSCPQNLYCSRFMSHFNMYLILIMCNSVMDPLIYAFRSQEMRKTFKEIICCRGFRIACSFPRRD", "experiment": "Inhibition of Melanocortin MC5 at 10 µM in the Eurofins-Panlabs radioligand binding assay (Eurofins_assay_251400)", "design": "ligand concentration 0.035 nM", "conditions": "Compound concentration 10.0 uM"}, "[11]": {"target": "Beta-1 adrenergic receptor (Homo sapiens) (UniProt P08588)", "sequence (P08588 whole entry, looked up)": "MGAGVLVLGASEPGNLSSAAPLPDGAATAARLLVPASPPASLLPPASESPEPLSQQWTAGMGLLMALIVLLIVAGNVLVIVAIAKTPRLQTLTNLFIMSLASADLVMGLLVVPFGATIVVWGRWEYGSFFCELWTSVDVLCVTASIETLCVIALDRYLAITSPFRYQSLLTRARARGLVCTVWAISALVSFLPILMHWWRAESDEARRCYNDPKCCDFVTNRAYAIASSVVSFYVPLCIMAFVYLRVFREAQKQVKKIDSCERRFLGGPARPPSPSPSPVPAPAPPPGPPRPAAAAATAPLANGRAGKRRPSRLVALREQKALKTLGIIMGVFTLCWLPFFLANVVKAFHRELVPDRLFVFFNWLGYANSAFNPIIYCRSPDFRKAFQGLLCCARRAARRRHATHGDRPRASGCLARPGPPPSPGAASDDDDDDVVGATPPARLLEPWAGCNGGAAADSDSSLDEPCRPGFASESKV", "conditions": "Compound concentration 10.0 uM"}, "[12]": {"target": "Thromboxane-A synthase (Homo sapiens) (UniProt P24557)", "experiment": "Inhibition of Thromboxane Synthase at compound concentration of 10.0 uM in the Eurofins-Panlabs enzyme assay (Eurofins_assay_194020)", "design": "substrate with concentration", "conditions": "Compound concentration 10.0 uM"}, "MAO-A": {"target": "MAO-A (Homo sapiens, UniProt P21397)", "experiment": "Inhibition of Monoamine Oxidase MAO-A at compound concentration of 10.0 uM in the Eurofins-Panlabs enzyme assay (Eurofins_assay_140010)", "design": "substrate with concentration 50 uM Kynuramine, incubation time 60 min, incubation temperature 37 C", "conditions": "human recombinant MAO-A expressed in insect Hi5 cells, probe Kynuramine, compound concentration 10 uM"}, "[13]": {"target": "Sodium-dependent noradrenaline transporter (Homo sapiens, UniProt P23975)", "sequence (P23975 whole entry)": "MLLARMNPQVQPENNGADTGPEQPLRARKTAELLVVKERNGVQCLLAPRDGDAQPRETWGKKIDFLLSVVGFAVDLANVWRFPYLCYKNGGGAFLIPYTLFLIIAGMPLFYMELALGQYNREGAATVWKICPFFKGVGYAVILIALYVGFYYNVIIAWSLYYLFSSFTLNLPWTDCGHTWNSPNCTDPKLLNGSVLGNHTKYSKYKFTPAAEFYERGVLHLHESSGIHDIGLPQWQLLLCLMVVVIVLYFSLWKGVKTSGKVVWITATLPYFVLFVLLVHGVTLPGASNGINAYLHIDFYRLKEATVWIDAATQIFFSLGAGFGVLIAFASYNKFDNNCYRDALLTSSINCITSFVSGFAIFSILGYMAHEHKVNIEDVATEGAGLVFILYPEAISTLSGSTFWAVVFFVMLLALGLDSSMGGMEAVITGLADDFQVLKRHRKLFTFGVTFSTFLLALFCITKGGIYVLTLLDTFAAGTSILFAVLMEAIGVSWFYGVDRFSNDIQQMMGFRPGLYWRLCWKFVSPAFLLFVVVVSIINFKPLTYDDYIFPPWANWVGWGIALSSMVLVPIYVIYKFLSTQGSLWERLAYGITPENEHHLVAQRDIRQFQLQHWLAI", "experiment": "GPCRScan assay: inhibition of NET", "design": "radioligand conc. used [nm] 1.3 – 5.0, parental cells stable HEK"}, "[14]": {"target": "Cholecystokinin receptor type A (Homo sapiens) (UniProt P32238)", "experiment": "Inhibition of Cholecystokinin CCK1 (CCKA) at 10 µM in the Eurofins-Panlabs radioligand binding assay (Eurofins_assay_218020)", "conditions": "Compound concentration 10.0 uM"}, "[15]": {"target": "Protein kinase C alpha type (Homo sapiens) (UniProt P17252)", "experiment": "Inhibition of Protein Serine/Threonine Kinase, PRKCA (PKCα) at 10 µM in the Eurofins-Panlabs enzyme assay (Eurofins_assay_180010)", "design": "substrate with concentration Histone, incubation time 10 min, incubation temperature 25 °C", "conditions": "Compound concentration 10.0 uM"}, "[16]": {"target": "Vasoactive intestinal polypeptide receptor 1 (Homo sapiens) (UniProt P32241)", "experiment": "Inhibition of Vasoactive Intestinal Peptide VIP1 at 10 µM in the Eurofins-Panlabs radioligand binding assay (Eurofins_assay_287010)", "conditions": "Compound concentration 10.0 uM"}, "Rattus norvegicus": {"organism": "Rattus norvegicus", "experiment": "Inhibition of Glycine, Strychnine-Sensitive at 10 µM in the Eurofins-Panlabs radioligand binding assay (Eurofins_assay_239000)", "conditions": "Compound concentration 10.0 uM"}, "[17]": {"target": "Kappa-type opioid receptor (Homo sapiens, UniProt P41145)", "sequence (P41145 whole entry)": "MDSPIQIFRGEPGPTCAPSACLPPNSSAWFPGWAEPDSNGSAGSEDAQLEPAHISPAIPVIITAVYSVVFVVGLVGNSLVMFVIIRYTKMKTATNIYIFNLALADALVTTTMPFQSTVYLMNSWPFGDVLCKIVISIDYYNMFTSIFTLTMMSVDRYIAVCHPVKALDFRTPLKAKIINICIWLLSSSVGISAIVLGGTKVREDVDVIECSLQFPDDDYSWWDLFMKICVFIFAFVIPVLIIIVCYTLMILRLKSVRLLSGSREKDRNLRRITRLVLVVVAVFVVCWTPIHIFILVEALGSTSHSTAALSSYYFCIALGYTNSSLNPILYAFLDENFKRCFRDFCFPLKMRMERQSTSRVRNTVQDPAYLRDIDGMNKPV", "experiment": "GPCRScan assay: inhibition of KOR", "design": "radioligand conc. used [nm] 0.6 – 1.2, parental cells stable HEK"}, "[18]": {"target": "Tyrosine-protein kinase SYK (Homo sapiens) (UniProt P43405)", "experiment": "Inhibition of Syk(h) at 10.0 µM in the Eurofins Kinase panel", "conditions": "Compound concentration 10.0 uM"}, "[19]": {"target": "AP2-associated protein kinase 1 (Homo sapiens) (UniProt Q2M2I8)", "experiment": "Inhibition of AAK1(h) at 10.0 µM in the Eurofins Kinase panel", "conditions": "Compound concentration 10.0 uM"}, "[20]": {"target": "C-C chemokine receptor type 5 (Homo sapiens) (UniProt P51681)", "experiment": "Inhibition of Chemokine CCR5 at 10 µM in the Eurofins-Panlabs radioligand binding assay (Eurofins_assay_217720)", "conditions": "Compound concentration 10.0 uM"}, "[21]": {"target": "Aldo-keto reductase family 1 member B1 (Rattus norvegicus) (UniProt P07943)", "experiment": "Inhibition of Aldose Reductase at compound concentration of 10.0 uM in the Eurofins-Panlabs enzyme assay (Eurofins_assay_107000)", "design": "substrate with concentration", "conditions": "Compound concentration 10.0 uM"}, "[22]": {"target": "Neutrophil elastase (Homo sapiens) (UniProt P08246)", "sequence (P08246 whole entry)": "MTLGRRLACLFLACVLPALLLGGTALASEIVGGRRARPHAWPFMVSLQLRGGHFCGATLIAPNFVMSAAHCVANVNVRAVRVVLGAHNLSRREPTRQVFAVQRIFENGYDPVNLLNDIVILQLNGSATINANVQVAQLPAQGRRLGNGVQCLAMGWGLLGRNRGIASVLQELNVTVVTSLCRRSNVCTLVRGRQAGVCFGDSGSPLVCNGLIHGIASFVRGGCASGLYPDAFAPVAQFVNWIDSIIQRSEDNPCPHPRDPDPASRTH", "experiment": "Inhibition of Peptidase, ELA2 (Neutrophil Elastase 2) at 10 µM in the Eurofins-Panlabs enzyme assay (Eurofins_assay_166010)", "conditions": "Compound concentration 10.0 uM"}, "[23]": {"target": "Beta-2 adrenergic receptor (Homo sapiens) (UniProt P07550)", "sequence (P07550 whole entry, looked up)": "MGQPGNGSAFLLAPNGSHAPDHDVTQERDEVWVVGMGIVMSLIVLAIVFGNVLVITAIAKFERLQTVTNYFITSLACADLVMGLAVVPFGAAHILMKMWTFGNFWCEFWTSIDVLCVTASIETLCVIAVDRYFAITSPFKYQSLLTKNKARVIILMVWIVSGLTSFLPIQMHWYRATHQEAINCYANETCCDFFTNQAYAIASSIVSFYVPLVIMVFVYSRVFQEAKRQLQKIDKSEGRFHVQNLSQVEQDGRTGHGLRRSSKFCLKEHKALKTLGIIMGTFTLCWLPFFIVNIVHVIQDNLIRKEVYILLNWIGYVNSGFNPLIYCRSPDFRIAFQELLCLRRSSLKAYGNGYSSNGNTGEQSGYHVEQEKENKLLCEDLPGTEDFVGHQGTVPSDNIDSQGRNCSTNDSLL", "conditions": "Compound concentration 10.0 uM"}},
  "data": [
    {"smiles": "O=c1n(Cc2cncn2-c2cccc(Cl)c2)nc(-c2ccc(Cl)cc2)n1C[C@H](O)C(F)(F)F", "values": [
      {"measurement": "inhibition", "setting": "[1]", "value": -7.12, "unit": "%"},
      {"measurement": "inhibition", "setting": "[2]", "value": -6, "unit": "%"},
      {"measurement": "inhibition", "setting": "Vasopressin V2 receptor", "value": 29, "unit": "%"},
      {"measurement": "inhibition", "setting": "[3]", "value": 2.09, "unit": "%"},
      {"measurement": "inhibition", "setting": "[4]", "value": -7.41, "unit": "%"},
      {"measurement": "inhibition", "setting": "[5]", "value": 5.54, "unit": "%"},
      {"measurement": "inhibition", "setting": "[6]", "value": -5.3, "unit": "%"},
      {"measurement": "IC50", "setting": "Vasopressin V1a receptor", "value": "> 10000 nM (not active)"}
    ]},
    {"smiles": "C[C@H](O)c1nc(Cn2nc(-c3ccc(Cl)cc3)n(C[C@H](O)C(F)(F)F)c2=O)nn1-c1cccc(Cl)c1", "note": "[PECAVAPTAN]", "values": [
      {"measurement": "inhibition", "setting": "[7]", "value": 16, "unit": "%"},
      {"measurement": "inhibition", "setting": "[8]", "value": 23, "unit": "%"},
      {"measurement": "inhibition", "setting": "[9]", "value": -4.83, "unit": "%"},
      {"measurement": "inhibition", "setting": "[10]", "value": 13, "unit": "%"},
      {"measurement": "inhibition", "setting": "[11]", "value": -7.44, "unit": "%"},
      {"measurement": "inhibition", "setting": "[12]", "value": -6, "unit": "%"},
      {"measurement": "inhibition at 60 min, 10 µM", "setting": "MAO-A", "value": "-3% (not active)"},
      {"measurement": "Ki", "setting": "[13]; read-out: Ki", "value": 1320, "unit": "nM"},
      {"measurement": "Ki", "setting": "[13]; read-out: pKi (converted)", "value": 1320, "unit": "nM"},
      {"measurement": "inhibition", "setting": "[14]", "value": 15, "unit": "%"},
      {"measurement": "inhibition", "setting": "[15]", "value": -2, "unit": "%"},
      {"measurement": "inhibition", "setting": "[16]", "value": 10, "unit": "%"},
      {"measurement": "inhibition", "setting": "Rattus norvegicus", "value": 12, "unit": "%"},
      {"measurement": "Ki", "setting": "[17]; read-out: Ki", "value": 2170, "unit": "nM"},
      {"measurement": "Ki", "setting": "[17]; read-out: pKi (converted)", "value": 2140, "unit": "nM"},
      {"measurement": "inhibition", "setting": "[18]", "value": -8.56, "unit": "%"},
      {"measurement": "inhibition", "setting": "[19]", "value": -9.01, "unit": "%"},
      {"measurement": "inhibition", "setting": "[20]", "value": -3, "unit": "%"},
      {"measurement": "inhibition", "setting": "[21]", "value": 6, "unit": "%"},
      {"measurement": "inhibition", "setting": "[22]", "value": 1, "unit": "%"},
      {"measurement": "inhibition", "setting": "[23]", "value": -4.34, "unit": "%"}
    ]}
  ]
}
